Measured values reported in PubChem BioAssay (NCI).
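Briefly, cells in 96-well plates were exposed to five compound concentrations for 48 h, and endpoints were estimated by linear interpolation. GI50: concentration for 50% inhibition of growth. Definition used: TGI = concentration required for complete inhibition of growth.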

Columns and labels:
Assay in all cases: NCI tumour cell line growth inhibition, 48 h
ACHN renal = test system: ACHN renal
OVCAR-5 ovarian = test system: OVCAR-5 ovarian
OVCAR-8 ovarian = test system: OVCAR-8 ovarian
A549 NSCLC = test system: A549 NSCLC
A498 renal = test system: A498 renal
HT29 colon = test system: HT29 colon
SK-MEL-5 melanoma = test system: SK-MEL-5 melanoma
PC-3 prostate = test system: PC-3 prostate
LOX IMVI melanoma = test system: LOX IMVI melanoma
RPMI-8226 leukemia = test system: RPMI-8226 leukemia
T-47D breast = test system: T-47D breast
SN12C renal = test system: SN12C renal
COLO 205 colon = test system: COLO 205 colon
OVCAR-3 ovarian = test system: OVCAR-3 ovarian
EKVX NSCLC = test system: EKVX NSCLC
DU-145 prostate = test system: DU-145 prostate
CAKI-1 renal = test system: CAKI-1 renal
TK-10 renal = test system: TK-10 renal
NCI-H226 lung = test system: NCI-H226 lung
NCI/ADR-RES ovarian = test system: NCI/ADR-RES ovarian
HOP-62 NSCLC = test system: HOP-62 NSCLC
MDA-MB-231 breast = test system: MDA-MB-231 breast
SF-295 CNS = test system: SF-295 CNS
UACC-62 melanoma = test system: UACC-62 melanoma
SNB-75 CNS = test system: SNB-75 CNS
UACC-257 melanoma = test system: UACC-257 melanoma
NCI-H23 lung = test system: NCI-H23 lung
786-0 renal = test system: 786-0 renal
NCI-H460 lung = test system: NCI-H460 lung
SK-OV-3 ovarian = test system: SK-OV-3 ovarian
NCI-H522 lung = test system: NCI-H522 lung
MCF7 breast = test system: MCF7 breast
HS 578T breast = test system: HS 578T breast
HCC-2998 colon = test system: HCC-2998 colon
MDA-MB-435 = test system: MDA-MB-435
SK-MEL-2 melanoma = test system: SK-MEL-2 melanoma
HOP-92 NSCLC = test system: HOP-92 NSCLC
MOLT-4 leukemia = test system: MOLT-4 leukemia
HCT-15 colon = test system: HCT-15 colon
BT-549 breast = test system: BT-549 breast
HCT-116 colon = test system: HCT-116 colon
SNB-19 CNS = test system: SNB-19 CNS
M14 melanoma = test system: M14 melanoma
KM12 colon = test system: KM12 colon
OVCAR-4 ovarian = test system: OVCAR-4 ovarian
SF-539 CNS = test system: SF-539 CNS
U251 CNS = test system: U251 CNS
RXF 393 renal = test system: RXF 393 renal
SR leukemia = test system: SR leukemia
CCRF-CEM leukemia = test system: CCRF-CEM leukemia
SK-MEL-28 melanoma = test system: SK-MEL-28 melanoma
SW-620 colon = test system: SW-620 colon
HL-60(TB) leukemia = test system: HL-60(TB) leukemia
SF-268 CNS = test system: SF-268 CNS
K-562 leukemia = test system: K-562 leukemia

Work on C(=C1c2ccccc2-c2ccccc21)c1ccncc1 yielded a GI50 (ACHN renal) of 10.6 µM, a TGI (ACHN renal) of 28 µM and a GI50 (OVCAR-5 ovarian) of 13.8 µM. The TGI (OVCAR-5 ovarian) was 33.2 µM, the GI50 (OVCAR-8 ovarian) was 7.99 µM and the TGI (OVCAR-8 ovarian) was 24.9 µM. It also gave a GI50 (A549 NSCLC) of 4.65 µM, a TGI (A549 NSCLC) of 19.3 µM and a GI50 (A498 renal) of 2.25 µM. The TGI (A498 renal) was 10.7 µM, the GI50 (HT29 colon) was 4.06 µM and the TGI (HT29 colon) was 13.9 µM. For the same molecule, the GI50 (SK-MEL-5 melanoma) was 4.64 µM, the TGI (SK-MEL-5 melanoma) was 16.7 µM and the GI50 (PC-3 prostate) was 13.4 µM. The TGI (PC-3 prostate) was over 100 µM, the GI50 (LOX IMVI melanoma) was 5.19 µM and the TGI (LOX IMVI melanoma) was 18.9 µM. The GI50 (RPMI-8226 leukemia) was 7.65 µM, the TGI (RPMI-8226 leukemia) was 63.4 µM and the GI50 (T-47D breast) was 6.04 µM. It also gave a TGI (T-47D breast) of 42.5 µM, a GI50 (SN12C renal) of 7.45 µM and a TGI (SN12C renal) of 21.6 µM. The GI50 (COLO 205 colon) was 5.32 µM, the TGI (COLO 205 colon) was 18.3 µM and the GI50 (OVCAR-3 ovarian) was 2.5 µM. It also gave a TGI (OVCAR-3 ovarian) of 6.75 µM, a GI50 (EKVX NSCLC) of 3.48 µM and a TGI (EKVX NSCLC) of 15.4 µM. It also gave a GI50 (DU-145 prostate) of 8.28 µM, a TGI (DU-145 prostate) of 20.9 µM and a GI50 (CAKI-1 renal) of 2.64 µM. It also gave a TGI (CAKI-1 renal) of 10.9 µM, a GI50 (TK-10 renal) of 13 µM and a TGI (TK-10 renal) of 26.9 µM. For the same molecule, the GI50 (NCI-H226 lung) was 11.6 µM, the TGI (NCI-H226 lung) was 31.7 µM and the GI50 (NCI/ADR-RES ovarian) was 3.88 µM. For the same molecule, the TGI (NCI/ADR-RES ovarian) was 16.2 µM, the GI50 (HOP-62 NSCLC) was 5.35 µM and the TGI (HOP-62 NSCLC) was 24.3 µM. For the same molecule, the GI50 (MDA-MB-231 breast) was 6.75 µM, the TGI (MDA-MB-231 breast) was 23.1 µM and the GI50 (SF-295 CNS) was 1.98 µM. The TGI (SF-295 CNS) was 5.28 µM, the GI50 (UACC-62 melanoma) was 5.14 µM and the TGI (UACC-62 melanoma) was 18.6 µM. It also gave a GI50 (SNB-75 CNS) of 6.5 µM, a TGI (SNB-75 CNS) of 24.6 µM and a GI50 (UACC-257 melanoma) of 11.6 µM. It also gave a TGI (UACC-257 melanoma) of 26.7 µM, a GI50 (NCI-H23 lung) of 9.94 µM and a TGI (NCI-H23 lung) of 26.6 µM. For the same molecule, the GI50 (786-0 renal) was 8.17 µM, the TGI (786-0 renal) was 22.7 µM and the GI50 (NCI-H460 lung) was 3.87 µM. It also gave a TGI (NCI-H460 lung) of 13.7 µM, a GI50 (SK-OV-3 ovarian) of 6.76 µM and a TGI (SK-OV-3 ovarian) of 24.5 µM. It also gave a GI50 (NCI-H522 lung) of 5.78 µM, a TGI (NCI-H522 lung) of 20.4 µM and a GI50 (MCF7 breast) of 3.92 µM. It also gave a TGI (MCF7 breast) of 14.6 µM, a GI50 (HS 578T breast) of 3.77 µM and a TGI (HS 578T breast) of 14.1 µM. It also gave a GI50 (HCC-2998 colon) of 11.3 µM, a TGI (HCC-2998 colon) of 24.5 µM and a GI50 (MDA-MB-435) of 1.81 µM. The TGI (MDA-MB-435) was 4.85 µM, the GI50 (SK-MEL-2 melanoma) was 10.6 µM and the TGI (SK-MEL-2 melanoma) was 26.4 µM. For the same molecule, the GI50 (HOP-92 NSCLC) was 11.2 µM, the TGI (HOP-92 NSCLC) was 25.4 µM and the GI50 (MOLT-4 leukemia) was 5.04 µM. For the same molecule, the TGI (MOLT-4 leukemia) was 35 µM, the GI50 (HCT-15 colon) was 4.51 µM and the TGI (HCT-15 colon) was 18.9 µM. It also gave a GI50 (BT-549 breast) of 10 µM, a TGI (BT-549 breast) of 22.4 µM and a GI50 (HCT-116 colon) of 3.84 µM. For the same molecule, the TGI (HCT-116 colon) was 14.3 µM, the GI50 (SNB-19 CNS) was 5.81 µM and the TGI (SNB-19 CNS) was 19.5 µM. For the same molecule, the GI50 (M14 melanoma) was 4.39 µM, the TGI (M14 melanoma) was 15.7 µM and the GI50 (KM12 colon) was 3.24 µM. The TGI (KM12 colon) was 11.9 µM, the GI50 (OVCAR-4 ovarian) was 12.1 µM and the TGI (OVCAR-4 ovarian) was 25.6 µM. For the same molecule, the GI50 (SF-539 CNS) was 5.62 µM, the TGI (SF-539 CNS) was 19.4 µM and the GI50 (U251 CNS) was 3.78 µM. It also gave a TGI (U251 CNS) of 16 µM, a GI50 (RXF 393 renal) of 5.69 µM and a TGI (RXF 393 renal) of 21.7 µM. It also gave a GI50 (SR leukemia) of 3.34 µM, a TGI (SR leukemia) of 50.1 µM and a GI50 (CCRF-CEM leukemia) of 5.36 µM. It also gave a TGI (CCRF-CEM leukemia) of 72.9 µM, a GI50 (SK-MEL-28 melanoma) of 10.6 µM and a TGI (SK-MEL-28 melanoma) of 24.2 µM. The GI50 (SW-620 colon) was 4.22 µM, the TGI (SW-620 colon) was 17.1 µM and the GI50 (HL-60(TB) leukemia) was 4.33 µM. It also gave a TGI (HL-60(TB) leukemia) of 22.2 µM, a GI50 (SF-268 CNS) of 6.39 µM and a TGI (SF-268 CNS) of 19.8 µM. For the same molecule, the GI50 (K-562 leukemia) was 4.35 µM and the TGI (K-562 leukemia) was over 100 µM.
